Results as given in article PMC12040169 (PLOS Biology, 2025).

Experiment: in vitro
Settings: human, hela cells, % viability

SMILES	viability at 28.5 h, 10 µM [%]	viability at 28.5 h, 10 µM (bulk resorufin, single well) [%]
O=C(O)CCn1c(CO)nc2ccccc21 [CBK111473]	115	–
COCCn1nnnc1C(c1cc2cc(C)ccc2[nH]c1=O)N1CCN(C(=O)c2ccco2)CC1 (stereo not drawn) [CBK111562]	80.3	–
O=C(CSc1nnc(-c2cccnc2)n1Cc1ccccc1)NCc1ccccc1 [CBK111647]	95.7	–
COc1ccc(C(=O)C(C)OC(=O)c2ccc3ccccc3n2)cc1 (stereo not drawn) [CBK111937]	99	–
CCOC(=O)CN1N=C(C)C(Cc2c(Cl)cccc2Cl)(OC)C1=O (stereo not drawn) [CBK112646]	98.1	–
FC(F)(F)c1cccc(-c2cnn(-c3ccc4c(c3)OCO4)n2)c1 [CBK112664]	89.6	–
CS(=O)(=O)c1ccc(-n2ncc(-c3cccc(C(F)(F)F)c3)n2)cc1 [CBK112672]	95.6	–
COc1ccc(-n2ncc(-c3ccc(C(F)(F)F)cc3)n2)cc1 [CBK112688]	92.4	–
CN(C)c1ccc(-n2ncc(-c3ccccc3C(F)(F)F)n2)cc1 [CBK112716]	92.4	–
COc1ccc(-c2cnn(-c3cncnc3)n2)cc1 [CBK112763]	94.5	–
COc1ccc(-c2cnn(-c3ccc(OC(F)(F)F)cc3)n2)cc1 [CBK112773]	87.6	–
Oc1ccc(-n2ncc(-c3ccc(Cl)cc3)n2)cc1 [CBK112794]	86.8	–
NC(=O)c1cccc(-n2ncc(-c3cccnc3)n2)c1 [CBK112806]	81.6	–
CC(=O)Nc1cccc(-n2ncc(-c3cccnc3)n2)c1 [CBK112811]	98.7	–
COc1cccc(-n2ncc(-c3cccnc3)n2)c1 [CBK112813]	89.9	–
Clc1ccc(-n2ncc(-c3cccnc3)n2)cc1Cl [CBK112814]	101	–
c1cncc(-c2cnn(-c3ccc4[nH]ccc4c3)n2)c1 [CBK112820]	85.7	–
O=S1(=O)CCN(Cc2cnn(-c3cncnc3)n2)CC1 [CBK112878]	100	–
O=S1(=O)CCN(Cc2cnn(-c3ccc(OC(F)(F)F)cc3)n2)CC1 [CBK112883]	95.3	–
CC(=O)c1ccc(-n2ncc(-c3ccc(F)cc3)n2)cc1 [CBK112889]	100	–
Oc1ccc(-n2ncc(-c3ccc(F)cc3)n2)cc1 [CBK112904]	79.7	–
COc1ccc(-n2ncc(-c3ccc(Br)cc3F)n2)cc1OC [CBK112915]	96.9	–
COC(=O)c1ccc(-n2cc(-c3cccc(C(F)(F)F)c3)nn2)cc1 [CBK112936]	90	–
COc1ccc(-n2cc(-c3ccc(C(F)(F)F)cc3)nn2)cc1OC [CBK112952]	96.8	–

SMILES	viability at 28.5 h, 10 µM [%]	viability at 28.5 h, 10 µM (bulk resorufin, single well) [%]
N#Cc1cccc(-n2cc(-c3ccc(C(F)(F)F)cc3)nn2)c1 [CBK112957]	88.1	–
COc1ccc(-n2cc(-c3ccccc3C(F)(F)F)nn2)cc1OC [CBK112965]	89.4	–
Oc1ccc(-n2cc(-c3ccccc3C(F)(F)F)nn2)cc1 [CBK112971]	95.5	–
N#Cc1ccc(-n2cc(-c3ccc(F)cc3F)nn2)cc1 [CBK112990]	98.3	–
COc1ccc(-c2cn(-c3ccc(OC)c(OC)c3)nn2)cc1 [CBK113001]	121	–
COc1ccc(-c2cn(-c3cccc(NC(C)=O)c3)nn2)cc1 [CBK113008]	97.2	–
COc1ccc(-c2cn(-c3ccc(OC(F)(F)F)cc3)nn2)cc1 [CBK113024]	110	–
Clc1ccc(-c2cn(-c3cnc4ccccc4c3)nn2)cc1 [CBK113044]	94.8	–
Cc1ccc(Cl)cc1-n1cc(-c2ccc(Cl)cc2)nn1 [CBK113045]	82.4	–
NC(=O)c1ccc(-n2cc(-c3ccc(Cl)cc3)nn2)cc1 [CBK113046]	93.4	–
Fc1ccc(-n2cc(-c3cccnc3)nn2)cc1F [CBK113055]	89.3	–
CS(=O)(=O)c1ccc(-n2cc(-c3cccnc3)nn2)cc1 [CBK113061]	104	–
NC(=O)c1cccc(-n2cc(-c3ccsc3)nn2)c1 [CBK113076]	86.4	–
Oc1ccc(-n2cc(-c3ccsc3)nn2)cc1 [CBK113093]	84.6	–
COc1ccc(-n2cc(-c3ccc(F)cc3)nn2)cc1OC [CBK113110]	89.8	–
Fc1ccc(-c2cn(-c3ccc(OCc4ccccc4)c(F)c3)nn2)cc1 [CBK113121]	99	–
Oc1ccc(-n2cc(-c3ccc(F)cc3)nn2)cc1 [CBK113126]	82	–
Cc1ccc(Cl)cc1-n1cc(-c2ccc(F)cc2)nn1 [CBK113128]	98.9	–
N#Cc1cccc(-n2cc(-c3ccc(Br)cc3F)nn2)c1 [CBK113143]	95.4	–
Fc1cc(Br)ccc1-c1cn(-c2ccc(Oc3ccccc3)cc2)nn1 [CBK113145]	89.5	–
C=CCC1c2cccc(C(=O)O)c2C(=O)N1c1ccc(F)cc1 (stereo not drawn) [CBK113158]	94.1	–
C=CCC1c2cccc(C(=O)O)c2C(=O)N1c1cccc(OC)c1 (stereo not drawn) [CBK113160]	96.7	–
COc1ccc(OC)c(N2Cc3ccc(OC)c(OC)c3C2=O)c1 [CBK113161]	82.9	–
COc1cc(NS(=O)(=O)c2cc(C(=O)O)c(Cl)cc2Cl)cc(OC)c1 [CBK113162]	98.9	–

SMILES	viability at 28.5 h, 10 µM [%]	viability at 28.5 h, 10 µM (bulk resorufin, single well) [%]
O=C(O)c1ccc(NS(=O)(=O)c2cc(C(=O)O)ccc2Br)cc1 [CBK113164]	106	–
Cc1ccc(-c2nsc(SCC(=O)c3ccc(Cl)cc3)n2)cc1 [CBK113177]	92.1	–
O=C1c2ccccc2CN1c1nccs1 [CBK113184]	84.8	–
COC(=O)c1ccc(S(N)(=O)=O)o1 [CBK113186]	105	–
O=C1c2ccccc2S(=O)(=O)N1c1ccc(F)cc1 [CBK113194]	112	–
N#Cc1ccc(N2C(=O)c3ccccc3S2(=O)=O)cc1 [CBK113195]	113	–
Cc1nc2ccc(NC(=O)Nc3cccc(-c4ccc5c(c4)COC4(CCNCC4)O5)c3)cc2o1 [CBK113206]	–	101
CCOC(=O)Cn1nc(CC)c(Cc2c(Cl)cccc2Cl)c1C [CBK113222]	122	–
COc1ccc(C(=O)Nc2nsc(-c3ccccc3)n2)cc1 [CBK113233]	97.2	–
O=C(Nc1nc(-c2ccccc2)ns1)c1ccncc1 [CBK113234]	81.6	–
O=C1c2ccccc2C(Nc2cccnc2)N1c1ccccn1 (stereo not drawn) [CBK113239]	80.5	–
Cc1[nH]c(=O)[nH]c(=O)c1Cc1ccccc1 [CBK113244]	113	–
Cc1ccc(NC(=O)c2c[nH]c(=O)[nH]c2=O)cc1 [CBK113246]	95.7	–
O=c1[nH]c(=S)[nH]c2c1CCC2 [CBK113252]	92.4	–
CCN(CC)CCCCC1(C)SC(NC2CCCCCC2)=NC1=O (stereo not drawn) [CBK113257]	96.9	–
O=C1S/C(=C/c2ccc(Cl)cc2)C(=O)N1c1ccc(F)cc1 [CBK113265]	102	–
CC(C)Nc1cc(OC2CCN(C)CC2)ncn1 [CBK113280]	83.6	–
FC(F)(F)c1ccc(OC2CCNCC2)nc1 [CBK113287]	83	–
CN1CCN(C)C(COc2ccc(C(F)(F)F)cn2)C1 (stereo not drawn) [CBK113288]	96.8	–
FC(F)(F)c1cccc(OCCN2CCNCC2)n1 [CBK113291]	91.5	–
CN1CCN(C)C(COc2cccc(C(F)(F)F)n2)C1 (stereo not drawn) [CBK113292]	106	–
FC(F)(F)c1ccnc(OC2CCNCC2)n1 [CBK113294]	118	–
FC(F)(F)c1ccnc(OC2CCNC2)n1 (stereo not drawn) [CBK113296]	92.1	–
CN1CCN(C)C(COc2nccc(C(F)(F)F)n2)C1 (stereo not drawn) [CBK113298]	95.2	–

SMILES	viability at 28.5 h, 10 µM [%]	viability at 28.5 h, 10 µM (bulk resorufin, single well) [%]
CN1CCC(Oc2nc3ccccc3nc2C(F)(F)F)CC1 [CBK113299]	90.1	–
COc1ccc(C)cc1S(=O)(=O)n1ccc2c(CNC3CCN(C)CC3)cccc21 [CBK113308T]	90.6	–
COc1ccc(C)cc1S(=O)(=O)n1ccc2c(CNC3CCN(C(C)C)CC3)cccc21 [CBK113310T]	117	–
COc1ccc(C)cc1S(=O)(=O)n1ccc2c(CNC3CC(C)(C)NC(C)(C)C3)cccc21 [CBK113311T]	83.1	–
COc1ccc(C)cc1S(=O)(=O)n1ccc2c(CN3CCC(N)CC3)cccc21 [CBK113312T]	78.6	–
c1cc(-c2cncc(-c3ccsc3)n2)cs1 [CBK113356]	95.7	–
C#CCOc1cncc(Cl)n1 [CBK113370]	87.7	–
Clc1cncc(-c2ccccc2)n1 [CBK113371]	93.8	–
CC(C)(C)OC(=O)N1CCN(c2ccc(Cl)nn2)CC1 [CBK113381]	96.2	–
OCCOc1ccnc2ccccc12 [CBK113395]	95.8	–
CC(C)Nc1nccnc1OCCN1CCOCC1 [CBK113410]	104	–
CN(C)CCCOc1nccnc1N1CCCC1 [CBK113427]	89.6	–
FC(F)(F)c1ccnc(OCCN2CCNCC2)c1 [CBK113459]	97.4	–
CN1CCN(C)C(COc2cc(C(F)(F)F)ccn2)C1 (stereo not drawn) [CBK113460]	90.7	–
FC(F)(F)c1ccc(OCCN2CCOCC2)nc1 [CBK113461]	101	–
FC(F)(F)c1ccc(OCCN2CCNCC2)nc1 [CBK113462]	110	–
COc1ccc(SCCCCN2CCC3(CC2)OCCc2c3[nH]c3ccccc23)cc1 [CBK113464T]	0.266	–
Cc1ccc(C(=O)NCCCN2CCC3(CC2)OCCc2c3[nH]c3ccccc23)cc1 [CBK113485]	85.5	–
Cc1ccc(-n2sc(=O)n(CCc3ccccc3)c2=O)cc1 [CBK113496]	110	–
COc1ccc(OCCCCCN2CCC3(CC2)OCCc2c3[nH]c3ccccc23)cc1 [CBK113517T]	0	–
CCCc1n[nH]c(-c2ccccc2Cl)c1C(=O)OCC [CBK113547]	107	–
CCCc1n[nH]c(-c2ccc(Cl)cc2Cl)c1C(=O)OCC [CBK113548]	107	–
FCCOc1cncc(Cl)n1 [CBK113553]	115	–
Clc1nccnc1NCCOc1ccccc1 [CBK113564]	93.8	–
